From patent publication US8952024B2, “Herbicidal pyrimidone derivatives” (E I du Pont de Nemours and Company, priority 2009, dated 2015)

Experiments:
Test in all cases: Test B pre-/postemergence plant response
Format in all cases: in vivo
[1] = system: lambsquarters (Chenopodium album)
Procedure, shortened: (§1)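 Plants treated either at seeding (loam/sand soil) or postemergence at 2 to 18 cm height, using a surfactant-containing non-phytotoxic solvent formulation. Evaluation was visual after 13 to 15 days, 0 to 100 scale relative to controls.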

soybean (Glycine max) = system: soybean (Glycine max)
Procedure, shortened: as §1

wild oat (Avena fatua) = system: wild oat (Avena fatua)
Procedure, shortened: as §1

[2] = system: Surinam grass (Brachiaria decumbens)
Procedure, shortened: as §1

[3] = system: Italian ryegrass (Lolium multiflorum)
Procedure, shortened: as §1

[4] = system: blackgrass (Alopecurus myosuroides)
Procedure, shortened: as §1

[5] = system: yellow nutsedge (Cyperus esculentus)
Procedure, shortened: as §1

[6] = system: bermudagrass (Cynodon dactylon)
Procedure, shortened: as §1

[7] = system: cocklebur (Xanthium strumarium)
Procedure, shortened: as §1

[8] = system: velvetleaf (Abutilon theophrasti)
Procedure, shortened: as §1

corn (Zea mays) = system: corn (Zea mays)
Procedure, shortened: as §1

[9] = system: large crabgrass (Digitaria sanguinalis)
Procedure, shortened: as §1

[10] = system: downy bromegrass (Bromus tectorum)
Procedure, shortened: as §1

[11] = system: ragweed (common ragweed, Ambrosia elatior)
Procedure, shortened: as §1

[12] = system: green foxtail (Setaria viridis)
Procedure, shortened: as §1

[13] = system: pigweed (Amaranthus retroflexus)
Procedure, shortened: as §1

kochia (Kochia scoparia) = system: kochia (Kochia scoparia)
Procedure, shortened: as §1

[14] = 31 g ai/ha, postemergence, scale 0 to 100, 0 is no effect, 100 is complete control
[15] = 250 g ai/ha, Preemergence, 0 to 100 scale
[16] = Postemergence, 62 g ai/ha, scale 0 (no effect) to 100 (complete control), 13 to 15 days
[17] = Postemergence, 125 g ai/ha, visual rating after 13 to 15 days, scale 0 (no effect) to 100 (complete control)
[18] = Postemergence, 250 g ai/ha, scale 0 to 100 (0 no effect, 100 complete control)
[19] = Preemergence, 31 g ai/ha, scale 0 to 100 (0 no effect, 100 complete control)
[20] = Preemergence, 62 g ai/ha, scale 0 to 100, 0 no effect, 100 complete control
[21] = Preemergence, 125 g ai/ha, scale 0 to 100, 0 no effect, 100 complete control

Cc1ccc(Cl)cc1-n1c(-c2ccccc2)ncc(C(=O)C2=C(O)CCCC2=O)c1=O [Compound 52]
45: Plant response rating, Ryegrass, Italian [3, 16] | Plant response rating, Nutsedge, Yellow [5, 17] | Plant response rating, Corn (corn (Zea mays); [16]) | Plant response rating, Foxtail, Green [12, 21]
55: Plant response rating, Soybean (soybean (Glycine max); [21]) | Plant response rating, Ryegrass, Italian [3, 17] | Plant response rating, Bromegrass, Downy [10, 16] | Plant response rating, Kochia (kochia (Kochia scoparia); [17])
98: Plant response rating, Lambsquarters [1, 19] | Plant response rating, Soybean (soybean (Glycine max); [18]) | Plant response rating, Surinam Grass [2, 15] | Plant response rating, Surinam Grass [2, 18] | Plant response rating, Bermudagrass [6, 19] | Plant response rating, Bermudagrass [6, 20] | Plant response rating, Bermudagrass [6, 21] | Plant response rating, Velvetleaf [8, 16] | Plant response rating, Velvetleaf [8, 17] | Plant response rating, Velvetleaf [8, 20] | Plant response rating, Velvetleaf [8, 21] | Plant response rating, Crabgrass, Large [9, 18] | Plant response rating, Crabgrass, Large [9, 20] | Plant response rating, Foxtail, Green [12, 16] | Plant response rating, Foxtail, Green [12, 17] | Plant response rating, Pigweed [13, 18]
60: Plant response rating, Oat, Wild (wild oat (Avena fatua); [15]) | Plant response rating, Ryegrass, Italian [3, 18] | Plant response rating, Crabgrass, Large [9, 19] | Plant response rating, Bromegrass, Downy [10, 17]
80: Plant response rating, Soybean (soybean (Glycine max); [14]) | Plant response rating, Soybean (soybean (Glycine max); [15]) | Plant response rating, Nutsedge, Yellow [5, 21] | Plant response rating, Velvetleaf [8, 19] | Plant response rating, Corn (corn (Zea mays); [18]) | Plant response rating, Ragweed [11, 16] | Plant response rating, Ragweed [11, 17] | Plant response rating, Ragweed [11, 19] | Plant response rating, Ragweed [11, 20]
95: Plant response rating, Lambsquarters [1, 18] | Plant response rating, Soybean (soybean (Glycine max); [16]) | Plant response rating, Soybean (soybean (Glycine max); [17]) | Plant response rating, Oat, Wild (wild oat (Avena fatua); [17]) | Plant response rating, Oat, Wild (wild oat (Avena fatua); [18]) | Plant response rating, Surinam Grass [2, 21] | Plant response rating, Bermudagrass [6, 16] | Plant response rating, Bermudagrass [6, 17] | Plant response rating, Velvetleaf [8, 14] | Plant response rating, Ragweed [11, 15] | Plant response rating, Foxtail, Green [12, 14] | Plant response rating, Pigweed [13, 17]
0: Plant response rating, Soybean (soybean (Glycine max); [19]) | Plant response rating, Soybean (soybean (Glycine max); [20]) | Plant response rating, Oat, Wild (wild oat (Avena fatua); [19]) | Plant response rating, Ryegrass, Italian [3, 15] | Plant response rating, Ryegrass, Italian [3, 19] | Plant response rating, Ryegrass, Italian [3, 20] | Plant response rating, Ryegrass, Italian [3, 21] | Plant response rating, Blackgrass [4, 19] | Plant response rating, Blackgrass [4, 20] | Plant response rating, Blackgrass [4, 21] | Plant response rating, Nutsedge, Yellow [5, 19] | Plant response rating, Cocklebur [7, 19] | Plant response rating, Cocklebur [7, 20] | Plant response rating, Corn (corn (Zea mays); [15]) | Plant response rating, Corn (corn (Zea mays); [19]) | Plant response rating, Corn (corn (Zea mays); [20]) | Plant response rating, Corn (corn (Zea mays); [21]) | Plant response rating, Bromegrass, Downy [10, 19] | Plant response rating, Foxtail, Green [12, 19]
100: Plant response rating, Lambsquarters [1, 15] | Plant response rating, Lambsquarters [1, 20] | Plant response rating, Lambsquarters [1, 21] | Plant response rating, Bermudagrass [6, 15] | Plant response rating, Bermudagrass [6, 18] | Plant response rating, Velvetleaf [8, 15] | Plant response rating, Velvetleaf [8, 18] | Plant response rating, Crabgrass, Large [9, 15] | Plant response rating, Crabgrass, Large [9, 21] | Plant response rating, Foxtail, Green [12, 15] | Plant response rating, Foxtail, Green [12, 18] | Plant response rating, Pigweed [13, 15] | Plant response rating, Pigweed [13, 20] | Plant response rating, Pigweed [13, 21]
75: Plant response rating, Surinam Grass [2, 14] | Plant response rating, Cocklebur [7, 14] | Plant response rating, Cocklebur [7, 15] | Plant response rating, Ragweed [11, 14]
20: Plant response rating, Nutsedge, Yellow [5, 14] | Plant response rating, Kochia (kochia (Kochia scoparia); [14])
70: Plant response rating, Bromegrass, Downy [10, 18]
65: Plant response rating, Nutsedge, Yellow [5, 18] | Plant response rating, Corn (corn (Zea mays); [17]) | Plant response rating, Kochia (kochia (Kochia scoparia); [18])
50: Plant response rating, Bromegrass, Downy [10, 14]
5: Plant response rating, Oat, Wild (wild oat (Avena fatua); [20]) | Plant response rating, Oat, Wild (wild oat (Avena fatua); [21]) | Plant response rating, Blackgrass [4, 14] | Plant response rating, Blackgrass [4, 16] | Plant response rating, Bromegrass, Downy [10, 15] | Plant response rating, Bromegrass, Downy [10, 20] | Plant response rating, Bromegrass, Downy [10, 21]
85: Plant response rating, Lambsquarters [1, 14] | Plant response rating, Lambsquarters [1, 16] | Plant response rating, Surinam Grass [2, 16] | Plant response rating, Bermudagrass [6, 14] | Plant response rating, Cocklebur [7, 16] | Plant response rating, Cocklebur [7, 17] | Plant response rating, Cocklebur [7, 18] | Plant response rating, Crabgrass, Large [9, 14] | Plant response rating, Ragweed [11, 18] | Plant response rating, Ragweed [11, 21] | Plant response rating, Pigweed [13, 14]
30: Plant response rating, Blackgrass [4, 18] | Plant response rating, Corn (corn (Zea mays); [14]) | Plant response rating, Foxtail, Green [12, 20]
90: Plant response rating, Lambsquarters [1, 17] | Plant response rating, Oat, Wild (wild oat (Avena fatua); [14]) | Plant response rating, Oat, Wild (wild oat (Avena fatua); [16]) | Plant response rating, Surinam Grass [2, 17] | Plant response rating, Nutsedge, Yellow [5, 15] | Plant response rating, Crabgrass, Large [9, 16] | Plant response rating, Crabgrass, Large [9, 17] | Plant response rating, Pigweed [13, 16] | Plant response rating, Pigweed [13, 19]
10: Plant response rating, Surinam Grass [2, 19] | Plant response rating, Blackgrass [4, 15] | Plant response rating, Cocklebur [7, 21]
40: Plant response rating, Ryegrass, Italian [3, 14]
25: Plant response rating, Surinam Grass [2, 20] | Plant response rating, Blackgrass [4, 17] | Plant response rating, Nutsedge, Yellow [5, 16] | Plant response rating, Nutsedge, Yellow [5, 20] | Plant response rating, Kochia (kochia (Kochia scoparia); [16])
